Results reported in patent US6951856B2, “Arylethene-sulfonamides” (Actelion Pharmaceuticals Ltd., priority 2000, dated 2005).
pIC50: −log10 of the molar value. Read-outs that look alike come from different tables or passages of the source.

Key:
[1] = target: T1, ETA receptors (Rattus norvegicus, UniProt P26684); assay: Inhibition of endothelin-1-induced contractions on isolated rat aortic rings; assay type: cell-based; details: read-out: pA2 value ETA (converted)
T1 construct: The thoracic aorta or trachea were excised, dissected and cut in 3-5 mm rings; from tissue; host or cells: thoracic aorta rings of adult Wistar rats, endothelium removed
T1 sequence (P26684 21-426): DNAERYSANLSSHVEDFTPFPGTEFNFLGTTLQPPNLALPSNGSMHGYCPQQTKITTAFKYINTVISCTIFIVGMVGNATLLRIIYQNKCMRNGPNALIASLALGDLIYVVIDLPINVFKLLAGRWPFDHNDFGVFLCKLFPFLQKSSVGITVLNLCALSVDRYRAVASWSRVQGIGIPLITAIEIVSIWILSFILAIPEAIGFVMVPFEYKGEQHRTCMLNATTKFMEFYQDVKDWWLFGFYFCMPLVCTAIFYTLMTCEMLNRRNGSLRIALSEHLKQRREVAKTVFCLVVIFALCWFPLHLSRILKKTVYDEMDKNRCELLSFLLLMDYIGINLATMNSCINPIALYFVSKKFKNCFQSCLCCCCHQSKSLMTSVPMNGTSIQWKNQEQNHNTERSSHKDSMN
Protocol: 2) Inhibition of Endothelin-Induced Contractions on Isolated Rat Aortic Rings (ETA Receptors) and Rat Tracheal Rings (ETB Receptors):
Adult Wistar rats were anesthetized and exsanguinated. The thoracic aorta or trachea were excised, dissected and cut in 3-5 mm rings. The endothelium/epithelium was removed by gentle rubbing of the intimal surface. Each ring was suspended in a 10 ml isolated organ bath filled with Krebs-Henseleit solution (in mM; NaCl 115, KCl 4.7, MgSO4 1.2, KH2PO4 1.5, NaHCO3 25, CaCl2 2.5, glucose 10) kept at 37° and gassed with 95% O2 and 5% CO2. The rings were connected to force transducers and isometric tension was recorded (EMKA Technologies SA, Paris, France). The rings were stretched to a resting tension of 3 g (aorta) or 2 g (trachea). […] The functional inhibitory potency of the test compound was assessed by calculating the concentration ratio, i.e. the shift to the right of the EC50 induced by different concentrations of test compound. EC50 is the concentration of endothelin needed to get a half-maximal contraction, pA2 is the negative logarithm of the antagonist concentration which induces a two-fold shift in the EC50 value.

[2] = target: T2, human recombinant ETA receptors (Homo sapiens, UniProt P25101); assay: Inhibition of [125I]ET-1 binding to membranes from CHO cells carrying human ETA receptors; details: CHO cell membranes, 8 pM [125I]ET-1, 2 h at 20° C.
T2 construct: expressed in transfected cells; host or cells: CHO cells (microsomal membranes)
T2 sequence (P25101 21-427): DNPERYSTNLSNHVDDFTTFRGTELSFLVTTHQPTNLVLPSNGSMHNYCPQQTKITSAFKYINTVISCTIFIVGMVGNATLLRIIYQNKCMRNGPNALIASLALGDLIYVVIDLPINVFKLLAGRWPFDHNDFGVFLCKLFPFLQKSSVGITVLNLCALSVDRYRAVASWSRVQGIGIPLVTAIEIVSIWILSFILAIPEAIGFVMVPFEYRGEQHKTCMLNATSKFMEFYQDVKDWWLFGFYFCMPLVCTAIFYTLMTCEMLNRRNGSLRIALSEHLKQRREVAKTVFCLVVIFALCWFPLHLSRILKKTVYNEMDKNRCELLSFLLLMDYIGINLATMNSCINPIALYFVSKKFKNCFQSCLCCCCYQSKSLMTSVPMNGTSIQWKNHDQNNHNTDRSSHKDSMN
Protocol: (§1) 1) Inhibition of Endothelin Binding to Membranes from CHO Cells Carrying Human ET Receptors
(§2) For competition binding studies, membranes of CHO cells expressing human recombinant ETA or ETB receptors were used. Microsomal membranes from recombinant CHO cells were prepared and the binding assay made as previously described (Breu V., et al, FEBS Lett 1993; 334:210).
(§3) The assay was performed in 200 uL 50 mM Tris/HCl buffer, pH 7.4, including 25 mM MnCl2, 1 mM EDTA and 0.5% (w/v) BSA in polypropylene microtiter plates. […] After 2 h, the membranes were filtered on filterplates containing GF/C filters (Unifilterplates from Canberra Packard S.A. Zürich, Switzerland). To each well, 50 uL of scintillation cocktail was added (MicroScint 20, Canberra Packard S.A. Zürich, Switzerland) and the filter plates counted in a microplate counter (TopCount, Canberra Packard S.A. Zürich, Switzerland).
(§4) All the test compounds were dissolved, diluted and added in DMSO.

[3] = target: T3, human recombinant ETB receptors (Homo sapiens, UniProt P24530); assay: Inhibition of [125I]ET-1 binding to membranes from CHO cells carrying human ETB receptors
T3 construct: expressed in transfected cells; host or cells: CHO cells (microsomal membranes)
T3 sequence (P24530 27-442): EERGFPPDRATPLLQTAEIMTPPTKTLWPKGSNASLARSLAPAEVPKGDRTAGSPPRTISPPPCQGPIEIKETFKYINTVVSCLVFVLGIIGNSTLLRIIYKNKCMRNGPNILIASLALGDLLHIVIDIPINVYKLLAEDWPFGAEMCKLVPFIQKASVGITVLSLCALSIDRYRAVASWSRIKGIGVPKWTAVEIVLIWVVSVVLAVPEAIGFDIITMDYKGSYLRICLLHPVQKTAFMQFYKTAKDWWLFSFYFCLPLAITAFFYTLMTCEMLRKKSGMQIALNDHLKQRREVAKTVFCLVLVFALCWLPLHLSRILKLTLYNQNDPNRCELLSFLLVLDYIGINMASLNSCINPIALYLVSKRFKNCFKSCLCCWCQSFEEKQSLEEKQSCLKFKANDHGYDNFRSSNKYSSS
Protocol: as §1, §2, §3, §4

Structure (SMILES)	Kb [1] [nM]	pIC50 [2]	pIC50 [3]	pIC50 ([3]; CHO cell membranes, 8 pM [125I]ET-1, 2 h at 20° C.)
O=S(=O)(/C=C/c1ccccc1)Nc1ncnc(OCCOc2ncc(Br)cn2)c1-c1ccccc1 [Example 92]	12.3	7.70	5.13	–
COc1ccccc1Oc1c(NS(=O)(=O)/C=C/c2cccs2)ncnc1OCCOc1ncc(Br)cn1 [Example 214]	–	7.41	5.40	–
Cc1ccc(-c2c(NS(=O)(=O)/C=C/c3ccccc3)ncnc2OCCOc2ccc(Cl)cc2)cc1 [Example 6]	–	7.08	5.87	–
Cc1ccc(-c2c(NS(=O)(=O)/C=C/c3ccccc3)ncnc2OCCOc2ccc(Br)cn2)cc1 [Example 11]	–	7.73	6.58	–
Cc1ccc(-c2c(NS(=O)(=O)/C=C/c3cccs3)ncnc2OCCOc2ccc(Br)cn2)cc1 [Example 71]	–	7.77	6.29	–
O=S(=O)(/C=C/c1ccccc1)Nc1nc(-c2ccncc2)nc(OCCOc2ncc(Br)cn2)c1-c1ccc(Cl)cc1 [Example 65]	–	7.77	5.60	–
Cc1ccc(-c2c(NS(=O)(=O)/C=C/c3ccccc3)ncnc2OCCOc2nc3ccccc3o2)cc1 [Example 16]	–	7.21	5.95	–
COc1ccccc1Oc1c(NS(=O)(=O)/C=C/c2cccs2)nc(-c2ncccn2)nc1OCCOc1ncc(Br)cn1 [Example 157]	–	7.66	5.35	–
C/C(=C\c1ccccc1)S(=O)(=O)Nc1ncnc(OCCOc2ncc(Br)cn2)c1-c1ccc(C)cc1 [Example 30]	–	7.38	5.04	–
COc1cnc(OCCOc2nc(-c3ccncc3)nc(NS(=O)(=O)/C=C/c3ccccc3)c2-c2ccc(C)cc2)nc1 [Example 83]	–	7.56	5.12	–
Cc1ccc(-c2c(NS(=O)(=O)/C=C/c3ccccc3)ncnc2OCCOc2ccc(Br)cc2)cc1 [Example 3, 2-phenyl-ethenesulfonic acid {6-[2-(4-bromo-phenoxy)-ethoxy]-5-p-tolyl-pyrimidin-4-yl}-amide]	–	7.33	6.14	–
Cc1ccc(-c2c(NS(=O)(=O)/C=C/c3ccccc3)ncnc2OCCOc2ncccn2)cc1 [Example 2, 2-phenyl-ethenesulfonic acid {6-[2-(pyrimidin-2-yloxy)-ethoxy]-5-p-tolyl-pyrimidin-4-yl}-amide]	–	7.60	5.74	–
Cc1ccc(/C=C/S(=O)(=O)Nc2ncnc(OCCOc3ncc(Cl)cn3)c2-c2ccc(C)cc2)cc1 [Example 24]	–	7.66	6.18	–
Cc1ccc(-c2c(NS(=O)(=O)/C=C/c3cccs3)nc(-c3ncccn3)nc2OCCOc2ncc(C)cn2)cc1 [Example 75]	–	7.75	< 5.00	–
O=S(=O)(/C=C/c1ccccc1)Nc1ncnc(OCCOc2ccc(C(F)(F)F)cn2)c1-c1ccc(Cl)cc1 [Example 45]	–	7.71	6.48	–
O=S(=O)(/C=C/c1ccccc1)Nc1ncnc(OCCOc2ncc(F)cn2)c1-c1ccc(Cl)cc1 [Example 50]	–	7.51	5.16	–
Cc1ccc(-c2c(NS(=O)(=O)/C=C/c3cccs3)ncnc2OCCOc2ccc(C(F)(F)F)cn2)cc1 [Example 70]	–	7.80	6.59	–

These reach a higher pIC50 [2]. Values come first.

Kb [1] [nM]	pIC50 [2]	pIC50 [3]	pIC50 ([3]; CHO cell membranes, 8 pM [125I]ET-1, 2 h at 20° C.)	Structure (SMILES)
–	8.10	6.23	–	COc1ccccc1Oc1c(NS(=O)(=O)/C=C/c2ccccc2)nc(N2CCOCC2)nc1OCCOc1ncc(C(F)(F)F)cn1 [Example 198]
–	7.91	6.03	–	COc1cccc(Oc2c(NS(=O)(=O)/C=C/c3ccccc3)ncnc2OCCOc2ncc(Br)cn2)c1 [Example 230]
–	8.47	6.60	–	COc1cnc(OCCOc2nc(N3CCOCC3)nc(NS(=O)(=O)/C(C)=C/c3ccccc3)c2Oc2ccccc2OC)nc1 [Example 203]
–	8.01	6.00	–	COc1ccc(-c2c(NS(=O)(=O)/C=C/c3ccccc3)ncnc2OCCOc2ncc(Br)cn2)cc1 [Example 118]
–	8.11	5.45	–	COc1cnc(OCCOc2nc(-c3ncccn3)nc(NS(=O)(=O)/C=C/c3cccs3)c2-c2ccc(C)cc2)nc1 [Example 74]
–	8.30	6.66	–	COc1cnc(OCCOc2nc(N3CCOCC3)nc(NS(=O)(=O)/C=C/c3ccccc3)c2Oc2ccccc2OC)nc1 [Example 197]
–	7.84	5.41	–	COc1ccc(Cl)c(Oc2c(NS(=O)(=O)/C=C/c3ccccc3)nc(-c3ccncc3)nc2OCCOc2ncc(Br)cn2)c1 [Example 228]
–	8.34	6.76	–	CSc1cnc(OCCOc2ncnc(NS(=O)(=O)/C=C/c3ccccc3)c2-c2ccc(Cl)cc2)nc1 [Example 51]
–	8.41	6.36	–	O=S(=O)(/C=C/c1ccccc1)Nc1ncnc(OCCOc2ncc(Cl)cn2)c1-c1ccc(Br)cc1 [Example 87]
–	8.39	5.97	–	COc1ccccc1Oc1c(NS(=O)(=O)/C(C)=C/c2ccccc2)nc(-c2ccncc2)nc1OCCOc1ncc(Cl)cn1 [Example 176]
–	8.26	6.44	–	COc1cnc(OCCOc2nc(-c3ccncc3)nc(NS(=O)(=O)/C(C)=C/c3ccccc3)c2Oc2ccccc2OC)nc1 [Example 177]
–	8.07	5.33	–	CS(=O)(=O)c1nc(NS(=O)(=O)/C=C/c2ccccc2)c(-c2ccccc2)c(OCCOc2ncc(Br)cn2)n1 [Example 107]
–	8.14	5.64	–	COc1ccccc1Oc1c(NS(=O)(=O)/C=C/c2ccccc2)nc(-c2ccncc2)nc1OCCOc1ncc(Br)cn1 [Example 159]
–	8.34	5.91	–	O=S(=O)(/C=C/c1cccs1)Nc1ncnc(OCCOc2ncc(Cl)cn2)c1-c1ccc(Br)cc1 [Example 89]
–	8.24	5.78	–	Cc1ccc(-c2c(NS(=O)(=O)/C=C/c3ccccc3)nc(C3CC3)nc2OCCOc2ncc(Br)cn2)cc1 [Example 132]
–	8.15	6.12	–	O=S(=O)(/C=C/c1ccccc1)Nc1ncnc(OCCOc2ncc(Cl)cn2)c1-c1ccc(Cl)cc1 [Example 47]
–	8.13	5.99	–	COc1ccccc1Oc1c(NS(=O)(=O)/C=C/c2ccsc2)nc(-c2ccncc2)nc1OCCOc1ncccn1 [Example 180]
–	8.12	5.32	–	Cc1ccc(-c2c(NS(=O)(=O)/C=C/c3cccs3)nc(-c3ncccn3)nc2OCCOc2ncc(Cl)cn2)cc1 [Example 73]
–	8.04	–	5.62	Cc1ccc(-c2c(NS(=O)(=O)/C=C/c3cccs3)nc(-c3ncccn3)nc2OCCOc2ncc(Br)cn2)cc1 [Example 145]
–	8.48	6.86	–	COc1ccccc1Oc1c(NS(=O)(=O)/C=C/c2ccccc2)nc(N2CCOCC2)nc1OCCOc1ncc(SC)cn1 [Example 204]
